Measured values from US20100041089A1, “IMPROVED METHOD FOR DETECTING CHEMICAL […]” (priority 2006, published 2010).

Test system: yeast genes (expressed mRNA)
Assay: DNA chip measurement of expressed mRNA of yeast genes after culture with a toxic chemical substance
Assay type: cell-based, Saccharomyces cerevisiae S288C
Settings: for level of expressed mRNA in the presence of chemical substance / level in the absence of chemical substance: cultured two hours with the chemical substance; for The level of expressed mRNA in the presence of chemical substance/The level of expressed mRNA in the absence of chemical substance: cultured two hours with substance
Description: Yeast (Saccharomyces cerevisiae S288C (a SUC2mal mel gap2 CUP1)) were cultured at 25° C. on YPD medium (yeast extract 1%, polypeptone 2%, glucose 2%). One of toxic chemical substances was added to the cell at logarithmic growth phase, and the cell was further cultured for two hours. Cell was cultured without any chemical substance in the same condition, and was used as a control. Concentrations of the chemical substances were defined to inhibit the growth of the yeast but not lead to death.
After the completion of cultivation, the culture was centrifuged to collect the cells. To the cells, sodium acetate buffer (50 mM sodium acetate, 10 mM EDTA, 1% SDS) was added, and the mixture was shaken at 65° C. for five minutes, followed by returning to room temperature, and obtaining the supernatant, which procedure was repeated two times. To the supernatant, ½ amount of a solution of phenol/chloroform (1:1) was added, and the mixture was centrifuged to give a supernatant, an equal amount of chloroform was added, and the mixture was centrifuged to give a supernatant. To the supernatant, an equal amount of isopropanol containing 0.3 M sodium acetate was added, and the mixture was allowed to stand at room temperature for 30 minutes, after which the mixture was centrifuged to give sediment of the whole RNAs. Seventy % ethanol was added to the sediment, and the mixture was again centrifuged to give sediment, which was then dried and dissolved in water. mRNA was isolated from the whole RNAs as followings. In view of the fact that a poly A chain is attached to the 3′ terminus of mRNA, a polynucleotide having a poly T structure which was immobilized on the surface of latex beads was used to trap the mRNA, and then the mRNA was washed and eluted with spine column (Oligotex-dT30<Super>mRNA Purification Kit, Takara). Reverse transcription of the mRNA was conducted with a reverse transcriptase (Super Script II Reverse Transcriptase; catalogue No. 18064-014, GibcoBRL) using fluorescence-labeled nucleotides to give cDNAs that were introduced with Cy3-dUTP or Cy5-dUTP during the reverse transcription.
The labeled cDNAs were dissolved in TE buffer (10 mM Tris-HCl/1 mM EDTA, pH 8.0), and the solution was dropped on the DNA chip containing the whole genes of yeast (DNA Chip Research Inc. Japan) so that the cDNAs were hybridized on the DNA chip at 65° C. for over 12 hours. The fluoresces intensity of the DNA chip was read with a scanner, and the ratio relative to the fluorescence intensity resulting from the absence of chemical substance was estimated as the following, which is shown in Tables 1 to 9.
In the Tables, “Intensity” indicated in the rightmost column is a value of the level of expressed mRNA of each gene in control cells as divided by the average level of the expressions of the whole genes. A gene of which mRNA level is lower in control, and is higher in cases of addition of chemical substance, is especially useful in the detection of toxic substances.
Here, when a ratio of an amount of mRNA expressed in the presence of the chemical substance to an amount of mRNA expressed in the absence of the chemical substance is two or more, then it is considered significant.

CCCCCCCCCCCCc1ccc(S(=O)(=O)[O-])cc1.[Na+] [(17), Sodium dodecylbenzosulfonate]
The level of expressed mRNA in the presence of chemical substance/The level of expressed mRNA in the absence of chemical substance, yeast gene YBR036C (gene YBR036C, Metabolism protein genes, DNA chip fluorescence ratio): 2.1 | The level of expressed mRNA in the presence of chemical substance/The level of expressed mRNA in the absence of chemical substance, yeast gene YBR298C (gene YBR298C, Metabolism protein genes, DNA chip fluorescence ratio): 0.9 | The level of expressed mRNA in the presence of chemical substance/The level of expressed mRNA in the absence of chemical substance, yeast gene YDL067C (gene YDL067C (mitochondria-located protein gene), yeast cultured two hours with chemical substance, DNA chip fluorescence ratio to control): 1.2 | The level of expressed mRNA in the presence of chemical substance/The level of expressed mRNA in the absence of chemical substance, yeast gene YDL078C (gene YDL078C, Metabolism protein genes, DNA chip fluorescence ratio): 1.1 | The level of expressed mRNA in the presence of chemical substance/The level of expressed mRNA in the absence of chemical substance, yeast gene YDL215C (gene YDL215C, Metabolism protein genes, DNA chip fluorescence ratio): 1.1 | The level of expressed mRNA in the presence of chemical substance/The level of expressed mRNA in the absence of chemical substance, yeast gene YDR079W (gene YDR079W (mitochondria-located protein gene), yeast cultured two hours with chemical substance, DNA chip fluorescence ratio to control): 1.1 | The level of expressed mRNA in the presence of chemical substance/The level of expressed mRNA in the absence of chemical substance, yeast gene YDR297W (gene YDR297W, Metabolism protein genes, DNA chip fluorescence ratio): 1.9 | The level of expressed mRNA in the presence of chemical substance/The level of expressed mRNA in the absence of chemical substance, yeast gene YDR387C (gene YDR387C, Metabolism protein genes, DNA chip fluorescence ratio): 1.2 | The level of expressed mRNA in the presence of chemical substance/The level of expressed mRNA in the absence of chemical substance, yeast gene YGL035C (gene YGL035C, Metabolism protein genes, DNA chip fluorescence ratio): 0.9 | The level of expressed mRNA in the presence of chemical substance/The level of expressed mRNA in the absence of chemical substance, yeast gene YGR062C (gene YGR062C (mitochondria-located protein gene), yeast cultured two hours with chemical substance, DNA chip fluorescence ratio to control): 0.9 | The level of expressed mRNA in the presence of chemical substance/The level of expressed mRNA in the absence of chemical substance, yeast gene YGR287C (gene YGR287C, Metabolism protein genes, DNA chip fluorescence ratio): 1.0 | The level of expressed mRNA in the presence of chemical substance/The level of expressed mRNA in the absence of chemical substance, yeast gene YJL070C (gene YJL070C, Metabolism protein genes, DNA chip fluorescence ratio): 1.1 | The level of expressed mRNA in the presence of chemical substance/The level of expressed mRNA in the absence of chemical substance, yeast gene YJL096W (gene YJL096W (mitochondria-located protein gene), yeast cultured two hours with chemical substance, DNA chip fluorescence ratio to control): 1.1 | The level of expressed mRNA in the presence of chemical substance/The level of expressed mRNA in the absence of chemical substance, yeast gene YJL180C (gene YJL180C (mitochondria-located protein gene), yeast cultured two hours with chemical substance, DNA chip fluorescence ratio to control): 0.9 | The level of expressed mRNA in the presence of chemical substance/The level of expressed mRNA in the absence of chemical substance, yeast gene YKR009C (gene YKR009C, Metabolism protein genes, DNA chip fluorescence ratio): 1.9 | The level of expressed mRNA in the presence of chemical substance/The level of expressed mRNA in the absence of chemical substance, yeast gene YLR295C (gene YLR295C (mitochondria-located protein gene), yeast cultured two hours with chemical substance, DNA chip fluorescence ratio to control): 0.9 | The level of expressed mRNA in the presence of chemical substance/The level of expressed mRNA in the absence of chemical substance, yeast gene YLR351C (gene YLR351C, Metabolism protein genes, DNA chip fluorescence ratio): 1.3 | The level of expressed mRNA in the presence of chemical substance/The level of expressed mRNA in the absence of chemical substance, yeast gene YLR375W (gene YLR375W, Metabolism protein genes, DNA chip fluorescence ratio): 1.0 | The level of expressed mRNA in the presence of chemical substance/The level of expressed mRNA in the absence of chemical substance, yeast gene YMR023C (gene YMR023C (mitochondria-located protein gene), yeast cultured two hours with chemical substance, DNA chip fluorescence ratio to control): 1.1 | The level of expressed mRNA in the presence of chemical substance/The level of expressed mRNA in the absence of chemical substance, yeast gene YMR267W (gene YMR267W (mitochondria-located protein gene), yeast cultured two hours with chemical substance, DNA chip fluorescence ratio to control): 0.9 | The level of expressed mRNA in the presence of chemical substance/The level of expressed mRNA in the absence of chemical substance, yeast gene YMR267W (gene YMR267W, Metabolism protein genes, DNA chip fluorescence ratio): 0.9 | The level of expressed mRNA in the presence of chemical substance/The level of expressed mRNA in the absence of chemical substance, yeast gene YMR278W (gene YMR278W, Metabolism protein genes, DNA chip fluorescence ratio): 1.0 | The level of expressed mRNA in the presence of chemical substance/The level of expressed mRNA in the absence of chemical substance, yeast gene YMR293C (gene YMR293C, Metabolism protein genes, DNA chip fluorescence ratio): 0.8 | The level of expressed mRNA in the presence of chemical substance/The level of expressed mRNA in the absence of chemical substance, yeast gene YNL073W (gene YNL073W (mitochondria-located protein gene), yeast cultured two hours with chemical substance, DNA chip fluorescence ratio to control): 0.8 | The level of expressed mRNA in the presence of chemical substance/The level of expressed mRNA in the absence of chemical substance, yeast gene YNR072W (gene YNR072W, Metabolism protein genes, DNA chip fluorescence ratio): 1.3 | The level of expressed mRNA in the presence of chemical substance/The level of expressed mRNA in the absence of chemical substance, yeast gene YOL096C (gene YOL096C, Metabolism protein genes, DNA chip fluorescence ratio): 1.2 | The level of expressed mRNA in the presence of chemical substance/The level of expressed mRNA in the absence of chemical substance, yeast gene YOR180C (gene YOR180C, Metabolism protein genes, DNA chip fluorescence ratio): 0.9 | The level of expressed mRNA in the presence of chemical substance/The level of expressed mRNA in the absence of chemical substance, yeast gene YOR316C (gene YOR316C (mitochondria-located protein gene), yeast cultured two hours with chemical substance, DNA chip fluorescence ratio to control): 0.8 | The level of expressed mRNA in the presence of chemical substance/The level of expressed mRNA in the absence of chemical substance, yeast gene YOR363C (gene YOR363C, Metabolism protein genes, DNA chip fluorescence ratio): 1.3 | The level of expressed mRNA in the presence of chemical substance/The level of expressed mRNA in the absence of chemical substance, yeast gene YPL040C (gene YPL040C (mitochondria-located protein gene), yeast cultured two hours with chemical substance, DNA chip fluorescence ratio to control): 0.8 | The level of expressed mRNA in the presence of chemical substance/The level of expressed mRNA in the absence of chemical substance, yeast gene YPL134C (gene YPL134C (mitochondria-located protein gene), yeast cultured two hours with chemical substance, DNA chip fluorescence ratio to control): 1.3 | The level of expressed mRNA in the presence of chemical substance/The level of expressed mRNA in the absence of chemical substance, yeast gene YPR184W (gene YPR184W, Metabolism protein genes, DNA chip fluorescence ratio): 1.0 | level of expressed mRNA in the presence of chemical substance / level in the absence of chemical substance (yeast gene YAL018C): 0.9 | The level of expressed mRNA in the presence of chemical substance/The level of expressed mRNA in the absence of chemical substance (yeast gene YAL053W): 1.2 | level of expressed mRNA in the presence of chemical substance / level in the absence of chemical substance (yeast gene YAR047C): 1.7 | level of expressed mRNA in the presence of chemical substance / level in the absence of chemical substance (yeast gene YAR064W): 0.9 | level of expressed mRNA in the presence of chemical substance / level in the absence of chemical substance (yeast gene YBL044W): 0.8 | The level of expressed mRNA in the presence of chemical substance/The level of expressed mRNA in the absence of chemical substance (yeast gene YBL048W): 1.3 | The level of expressed mRNA in the presence of chemical substance/The level of expressed mRNA in the absence of chemical substance (yeast gene YBL107C): 0.9 | level of expressed mRNA in the presence of chemical substance / level in the absence of chemical substance (yeast gene YBR012C): 1.4 | level of expressed mRNA in the presence of chemical substance / level in the absence of chemical substance (yeast gene YBR066C): 1.2 | level of expressed mRNA in the presence of chemical substance / level in the absence of chemical substance (yeast gene YBR124W): 0.9 | level of expressed mRNA in the presence of chemical substance / level in the absence of chemical substance (yeast gene YBR162C): 1.2 | level of expressed mRNA in the presence of chemical substance / level in the absence of chemical substance (yeast gene YBR287W): 3.2 | level of expressed mRNA in the presence of chemical substance / level in the absence of chemical substance (yeast gene YCL042W): 0.8 | level of expressed mRNA in the presence of chemical substance / level in the absence of chemical substance (yeast gene YCL056C): 1.2 | level of expressed mRNA in the presence of chemical substance / level in the absence of chemical substance (yeast gene YCR007C): 2.6 | level of expressed mRNA in the presence of chemical substance / level in the absence of chemical substance (yeast gene YDL046W): 1.2 | The level of expressed mRNA in the presence of chemical substance/The level of expressed mRNA in the absence of chemical substance (yeast gene YDL072C): 1.6 | The level of expressed mRNA in the presence of chemical substance/The level of expressed mRNA in the absence of chemical substance (yeast gene YDL204W): 1.8 | The level of expressed mRNA in the presence of chemical substance/The level of expressed mRNA in the absence of chemical substance (yeast gene YDL222C): 0.9 | level of expressed mRNA in the presence of chemical substance / level in the absence of chemical substance (yeast gene YDR090C): 1.1
